Laboratory results reported in patent US20040249129A1, “Novel lactic bacteria of the genus lactococcus lactis and use thereof for preserving food products” (priority 2001, published 2004).
Where a SMILES comes first, the peptide text is derived from it. Bridges are numbered along the chain shown (N, C = ends). [ ]: non-standard residue; d: D form. The star is where a group is joined. Ileψ(thiazoline)Cys = CC[C@H](C)[C@H](N)C1=N[C@H](C(=O)*)CS1; dOrn = NCCC[C@@H](N)C(=O)O

test system: LLO strain; experiment: antibiogram of the strain LLO with antibiotic discs; type: cell-based, Lactococcus lactis; conditions: antibiotic discs on Mueller Hinton medium, 5% horse blood, pH 7.3; 48 hours at ambient temperature; streptomycin 10 U.I., kanamycin 30 U.I., gentamicin 10 U.I.
Protocol: An antibiogram has been produced with the strain LLO to study its resistance to several antibiotics.
The test is carried out on Mueller Hinton medium containing 1.7% agar and 5% horse blood, the pH is 7.3. The thickness of the agar in the Petri dishes is constant, it is 4 mm. It is a standardized medium according to the O.M.S. standards.
The LLO strain is cultivated in an MRS broth, pH 6.5, for […] at 15° C. until there is obtained the stationary phase. The culture is diluted to 1/10th in a Mueller Hinton broth. The approximate concentration of the suspension is 10^6 bacteria/ml.
The agar media are completely covered with 2 ml of the suspension. The excess liquid is withdrawn and the dishes are dried 10 minutes at ambient temperature. The antibiotic discs are deposited with the help of tongs (4 maximum). The dishes are incubated at ambient temperature for 48 hours.

Molecule | Result (antibiogram)
CC[C@H](C)[C@H](N)C1=N[C@H](C(=O)N[C@@H](CC(C)C)C(=O)N[C@H](CCC(=O)O)C(=O)N[C@H](C(=O)N[C@H]2CCCCNC(=O)[C@H](CC(N)=O)NC(=O)[C@@H](CC(=O)O)NC(=O)[C@H](Cc3cnc[nH]3)NC(=O)[C@@H](Cc3ccccc3)NC(=O)[C@H]([C@@H](C)CC)NC(=O)[C@@H](CCCN)NC2=O)[C@@H](C)CC)CS1 [Bacitracin] ({Ileψ(thiazoline)Cys}-L[dE]IK[dOrn]I[dF]H[dD]N; lactam 4-C) | Noticeable
Spiramycin | Noticeable
[H]/N=C(/N)N[C@H]1[C@H](O)[C@@H](O)[C@H](O[C@@H]2O[C@@H](C)[C@](O)(C=O)[C@H]2O[C@@H]2O[C@@H](CO)[C@H](O)[C@@H](O)[C@@H]2NC)[C@@H](N/C(N)=N\[H])[C@@H]1O [Streptomycin] | Noticeable
C[C@H]1c2cccc(O)c2C(O)=C2C(=O)[C@]3(O)C(O)=C(C(N)=O)C(=O)[C@@H](N(C)C)[C@@H]3[C@@H](O)[C@@H]21 [Doxycyclin] | Noticeable
CC1=C(C(=O)O)N2C(=O)[C@@H](NC(=O)[C@H](N)c3ccccc3)[C@H]2SC1 [Cefalexin] | Noticeable
CC1(C)S[C@@H]2[C@H](NC(=O)Cc3ccccc3)C(=O)N2[C@H]1C(=O)O [Penicillin G] | Noticeable
CN(C)[C@@H]1C(=O)C(C(N)=O)=C(O)[C@@]2(O)C(=O)C3=C(O)c4c(O)cccc4[C@@](C)(O)[C@H]3C[C@@H]12 [Tetracyclin] | Noticeable
c1ccoc1 [Furan] | Resistant
Gentamicin | Noticeable
CCN1CCN(c2cc3c(cc2F)c(=O)c(C(=O)O)cn3C2CC2)CC1 [Enrofloxacin] | Noticeable
CC1(C)S[C@@H]2[C@H](NC(=O)[C@H](N)c3ccccc3)C(=O)N2[C@H]1C(=O)O [Ampicillin] | Noticeable
CCC[C@@H]1C[C@@H](C(=O)N[C@@H]([C@H]2O[C@H](SC)[C@H](O)[C@@H](O)[C@H]2O)[C@@H](C)O)N(C)C1 [Lincomycin] | Noticeable
CC1CCc2cc(F)cc3c(=O)c(C(=O)O)cn1c23 (stereo not drawn) [Flumequin] | Resistant
O=C(N[C@H](CO)[C@H](O)c1ccc([N+](=O)[O-])cc1)C(Cl)Cl [Chloramphenicol] | Noticeable
CC[C@H]1OC(=O)[C@H](C)[C@@H](O[C@H]2C[C@@](C)(OC)[C@@H](O)[C@H](C)O2)[C@H](C)[C@@H](O[C@@H]2O[C@H](C)C[C@H](N(C)C)[C@H]2O)[C@](C)(O)C[C@@H](C)C(=O)[C@H](C)[C@@H](O)[C@]1(C)O [Erythromycin] | Noticeable
